target: T1, ALDH1a3 (Homo sapiens, UniProt P47895); experiment: ALDEFLUOR assay in SUM159-M1a-Aldh1a3 cells; assay type: cell-based; design: lentiviral vectors containing either the vector backbone or full-length human Aldh1a3; expressed in transfected cells; host or cells: SUM159-M1a human breast cancer cells, lentiviral pLex vector; conditions: 10 nM; FIG. 6C
T1 sequence (P47895 1-512): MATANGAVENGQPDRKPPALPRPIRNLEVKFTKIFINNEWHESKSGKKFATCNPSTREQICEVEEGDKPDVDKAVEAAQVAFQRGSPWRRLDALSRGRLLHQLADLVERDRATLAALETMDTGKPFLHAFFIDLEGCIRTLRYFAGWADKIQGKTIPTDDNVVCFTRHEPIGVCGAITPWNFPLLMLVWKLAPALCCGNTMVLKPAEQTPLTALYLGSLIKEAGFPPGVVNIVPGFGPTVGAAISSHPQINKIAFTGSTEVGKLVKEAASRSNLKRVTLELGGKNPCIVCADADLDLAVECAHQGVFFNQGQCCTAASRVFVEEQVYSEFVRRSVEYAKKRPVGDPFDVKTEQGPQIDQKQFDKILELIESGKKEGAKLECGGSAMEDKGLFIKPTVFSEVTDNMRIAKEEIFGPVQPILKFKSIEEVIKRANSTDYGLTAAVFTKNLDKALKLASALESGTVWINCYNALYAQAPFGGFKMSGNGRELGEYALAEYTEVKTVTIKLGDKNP
Description: (§1) Cells were counted, centrifuged and resuspended at 1,000,000 cells/mL in ALDEFLUOR™ buffer (Stemcell Technologies). ALDEFLUOR™ substrate (Stemcell Technologies, 1:200) and test compound or 1 mM DEAB were added to cell suspension and incubated at 37° C. for 45 minutes with vortexing every 15 minutes. Cells were centrifuged and resuspended in ALDEFLUOR™ buffer with DAPI at 5 μg/mL. Samples were analyzed with the BD LSR2 flow cytometry platform. Gating was performed using DEAB as a negative control.
Gating for background fluorescence was performed using 1 millimolar DEAB as a negative control.
The [inh-min]threshold was set at the lower bound of two standard deviations of control samples, while the IC50 threshold was set at 50% of the average of control samples.
An ALDEFLUOR™ assay was also used to assess the relative activity of several compounds described herein against SUM159-M1a-Aldh1a3 cells.

relative potency, ALDEFLUOR activity	Compound
nearly twice as potent as MBE 1.5	CC(C)Cc1cnccc1C(=O)Nc1cc2c(cc1F)NC(=O)CC2 [Compound 7]

same assay, conditions: 100 nM; FIG. 6A

Compound	inhibition of ALDH1a3 activity (percentage of ALDEFLUOR-positive cells)
CCc1cnccc1C(=O)Nc1cc2c(cc1F)NC(=O)CC2 [Compound 1, 3-ethyl-N-(7-fluoro-2-oxo-3,4-dihydro-1H-quinolin-6-yl)pyridine-4-carboxamide]	high-affinity compounds for the inhibition of ALDH1a3 activity

same assay, conditions: SUM 159-M1a-Aldh1a3 cells; FIG. 6B

Compound	inhibitory activity detected at concentrations as low as [nM]
CCc1cnccc1C(=O)Nc1cc2c(cc1F)NC(=O)CC2 [Compound 1, 3-ethyl-N-(7-fluoro-2-oxo-3,4-dihydro-1H-quinolin-6-yl)pyridine-4-carboxamide]	2

same assay, conditions: SUM159-M1a-Aldh1a3 cells; compound at 100 nM

Inhi-bitory Activity at 100 nM (%)	Percent of Cells Positive for ALDEFLUOR ™ at 100 nM [%]	Compound
0.60	76	Cc1ccc(C(=O)Nc2ccc3c(c2)CCC(=O)N3)cc1C [Compound 11]
29	55	Cc1cc(C(=O)Nc2cc3c(cc2F)NC(=O)CC3)ccn1 [Compound 16]
2	75	O=C1CCc2cc(NCc3cc[nH]c3)c(F)cc2N1 [Compound 17]
3.3	74	Cc1ccc(C(=O)Nc2ccc3c(c2)CCC(=O)N3)c(C)c1 [Compound 12]
8	70	O=C1CCc2cc(NC(=O)c3ccncc3)c(F)cc2N1 [Compound 2]
100	0.03	2-ethyl-N-(7-fluoro-2-oxo-3,4-dihydro-1H-quinolin-6-yl)benzamide [Compound 4]
55	34	CCc1cnccc1CNc1cc2c(cc1F)NC(=O)CC2 [Compound 3]
18	63	Cc1cnccc1C(=O)Nc1cc2c(cc1F)NC(=O)CC2 [Compound 15]

Compound	Inhi-bitory Activity at 100 nM (%)	Percent of Cells Positive for ALDEFLUOR ™ at 100 nM [%]
CCc1cnccc1C(=O)Nc1cc2c(cc1F)NC(=O)CC2 [Compound 1, 3-ethyl-N-(7-fluoro-2-oxo-3,4-dihydro-1H-quinolin-6-yl)pyridine-4-carboxamide]	99	0.73
3-ethyl-N-(2-oxo-3,4-dihydro-1H-quinolin-6-yl)pyridine-4-carboxamide [Compound 9]	83	13

target: T1, ALDH1a3; experiment: Aldh1a3 enzyme inhibition assay, recombinant hALDH1a3; assay type: biochemical; design: made in house; host or cells: E. coli BL21-DE3, pET-Aldh1a3; conditions: resorufin fluorescence, 20° C.
Text: (§2) Recombinant enzyme and inhibitor added immediately before assay. Reaction rate measured by resorufin fluorescence.

IC50 [µM]	Compound
> 5	Cc1ccc(C(=O)Nc2ccc3c(c2)CCC(=O)N3)cc1C [Compound 11]
> 5	Cc1cc(C(=O)Nc2cc3c(cc2F)NC(=O)CC3)ccn1 [Compound 16]
> 5	O=C1CCc2cc(NCc3cc[nH]c3)c(F)cc2N1 [Compound 17]
> 5	Cc1ccc(C(=O)Nc2ccc3c(c2)CCC(=O)N3)c(C)c1 [Compound 12]
> 5	O=C1CCc2cc(NC(=O)c3ccncc3)c(F)cc2N1 [Compound 2]
< 0.1	CC(C)Cc1cnccc1C(=O)Nc1cc2c(cc1F)NC(=O)CC2 [Compound 7]
< 0.1	2-ethyl-N-(7-fluoro-2-oxo-3,4-dihydro-1H-quinolin-6-yl)benzamide [Compound 4]
1 to 5	CCc1cnccc1CNc1cc2c(cc1F)NC(=O)CC2 [Compound 3]
> 5	Cc1cnccc1C(=O)Nc1cc2c(cc1F)NC(=O)CC2 [Compound 15]

Compound	IC50 [µM]
3-ethyl-N-(2-oxo-3,4-dihydro-1H-quinolin-6-yl)pyridine-4-carboxamide [Compound 9]	< 0.1

system: SUM 159-M1a cells; experiment: SUM 159-M1a xenograft metastasis, tail vein or intracardiac injection; assay type: in vivo, mouse; conditions: IP in conjunction with paclitaxel; FIGS. 9B and 10B
Description: All xenograft experiments were conducted on 8-week old female mice (athymic Nu/Nu, or NOD/SCID Gamma). Xenograft experiments were conducted using 125,000 SUM 159-M1a cells in 100 μL PBS for tail vein or intracardiac injection. Mice were randomized following injection. Bioluminescent imaging (BLI) was conducted using the IVIS 200 system and retroorbital luciferin injection. For drug treatment, MBE1 was given to mice via IP injection in conjunction with paclitaxel (5 mg/mL in 10% ethanol, 10% Kolliphor EL, 80% PBS) at the time intervals and dosages indicated in FIG. 9A (tail vein injection) and FIG. 10A (intracardiac injection).

Compound	lung and bone metastasis (BLI)
CCc1cnccc1C(=O)Nc1cc2c(cc1F)NC(=O)CC2 [Compound 1, 3-ethyl-N-(7-fluoro-2-oxo-3,4-dihydro-1H-quinolin-6-yl)pyridine-4-carboxamide]	effective therapeutic to treat established metastatic disease

system: not listed separately; experiment: Pharmacokinetic profiling in mice; conditions: 10 mg/kg oral gavage or 1 mg/kg intravenous; 0 hours to 24 hours post-dosing

Compound	cage side observations, adverse reactions
CCc1cnccc1C(=O)Nc1cc2c(cc1F)NC(=O)CC2 [Compound 1, 3-ethyl-N-(7-fluoro-2-oxo-3,4-dihydro-1H-quinolin-6-yl)pyridine-4-carboxamide]	no adverse reactions

same assay, conditions: male, CD-1/C57BL/6, mouse, plasma, iv, 1 mg/kg

Compound	half-life [h]
CCc1cnccc1C(=O)Nc1cc2c(cc1F)NC(=O)CC2 [Compound 1, 3-ethyl-N-(7-fluoro-2-oxo-3,4-dihydro-1H-quinolin-6-yl)pyridine-4-carboxamide]	1.79

same assay, conditions: male, CD-1/C57BL/6, mouse, plasma, oral, 10 mg/kg

Compound	bioavailability [%]
CCc1cnccc1C(=O)Nc1cc2c(cc1F)NC(=O)CC2 [Compound 1, 3-ethyl-N-(7-fluoro-2-oxo-3,4-dihydro-1H-quinolin-6-yl)pyridine-4-carboxamide]	88

same assay, conditions: male, CD-1/C57BL/6, mouse, plasma, po, 10 mg/kg

Compound	half-life [h]
CCc1cnccc1C(=O)Nc1cc2c(cc1F)NC(=O)CC2 [Compound 1, 3-ethyl-N-(7-fluoro-2-oxo-3,4-dihydro-1H-quinolin-6-yl)pyridine-4-carboxamide]	1.37

same assay, conditions: mice; oral gavage (PO) and intravenous (IV)

Compound	time plasma concentrations exceed 5-fold the IC50 [h]
CCc1cnccc1C(=O)Nc1cc2c(cc1F)NC(=O)CC2 [Compound 1, 3-ethyl-N-(7-fluoro-2-oxo-3,4-dihydro-1H-quinolin-6-yl)pyridine-4-carboxamide]	> 10

system: SUM 159-M1a cells; experiment: not given; conditions: shown in PCT/US2019/044278; cited from earlier work

Compound	metastatic lesions in mice
CCc1cnccc1C(=O)Nc1cc2c(cc1F)NC(=O)CC2 [Compound 1, 3-ethyl-N-(7-fluoro-2-oxo-3,4-dihydro-1H-quinolin-6-yl)pyridine-4-carboxamide]	shrink metastatic lesions in mice without toxicity

target: T2, mALDH1a3 (Mus musculus, UniProt Q9JHW9); experiment: Aldh1a3 enzyme inhibition assay, recombinant mALDH1a3; assay type: biochemical; conditions: resorufin fluorescence, 20° C.
T2 construct: made in house; host or cells: E. coli BL21-DE3, pET-Aldh1a3
T2 sequence (Q9JHW9 1-512): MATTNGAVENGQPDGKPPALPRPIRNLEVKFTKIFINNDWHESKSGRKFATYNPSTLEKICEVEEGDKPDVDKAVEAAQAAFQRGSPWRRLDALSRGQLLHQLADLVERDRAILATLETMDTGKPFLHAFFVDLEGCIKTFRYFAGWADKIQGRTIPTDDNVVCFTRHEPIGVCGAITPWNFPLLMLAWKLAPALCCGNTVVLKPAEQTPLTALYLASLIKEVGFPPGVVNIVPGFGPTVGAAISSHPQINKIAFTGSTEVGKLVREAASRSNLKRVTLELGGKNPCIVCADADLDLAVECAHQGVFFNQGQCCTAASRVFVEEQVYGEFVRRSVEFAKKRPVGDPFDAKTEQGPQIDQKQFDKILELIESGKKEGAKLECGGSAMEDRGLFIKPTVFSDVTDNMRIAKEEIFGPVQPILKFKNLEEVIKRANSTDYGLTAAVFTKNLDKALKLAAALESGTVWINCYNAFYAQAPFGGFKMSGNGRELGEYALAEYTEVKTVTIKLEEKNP
Text: as §2

IC50 [µM]	Compound
> 5	Cc1ccc(C(=O)Nc2ccc3c(c2)CCC(=O)N3)cc1C [Compound 11]
> 5	Cc1cc(C(=O)Nc2cc3c(cc2F)NC(=O)CC3)ccn1 [Compound 16]
> 5	O=C1CCc2cc(NCc3cc[nH]c3)c(F)cc2N1 [Compound 17]
> 5	Cc1ccc(C(=O)Nc2ccc3c(c2)CCC(=O)N3)c(C)c1 [Compound 12]
> 5	O=C1CCc2cc(NC(=O)c3ccncc3)c(F)cc2N1 [Compound 2]
0.1 to 0.25	CC(C)Cc1cnccc1C(=O)Nc1cc2c(cc1F)NC(=O)CC2 [Compound 7]
0.1 to 0.25	2-ethyl-N-(7-fluoro-2-oxo-3,4-dihydro-1H-quinolin-6-yl)benzamide [Compound 4]
1 to 5	CCc1cnccc1CNc1cc2c(cc1F)NC(=O)CC2 [Compound 3]
> 5	Cc1cnccc1C(=O)Nc1cc2c(cc1F)NC(=O)CC2 [Compound 15]

Compound	IC50 [µM]
3-ethyl-N-(2-oxo-3,4-dihydro-1H-quinolin-6-yl)pyridine-4-carboxamide [Compound 9]	0.25 to 1

system: not listed separately; experiment: Toxicity experiments in C57Bl6 mice; assay type: in vivo, mouse; conditions: IP, ascending 12.5 to 200 mg/kg at 24h intervals; 25 mg/kg every 3 days for 18 days
Description: All mice were originally ordered from the Jackson Laboratory (Bar Harbor, Me.) and breeding was conducted in a specific pathogen-free (SPF) barrier facility. Toxicity experiments were performed on 8-12-week old male and female C57Bl6 mice. MBE1 was dissolved at 50 mg/mL in DMSO followed by a […] into Kolliphor EL, followed by a 1:5 dilution into PBS to yield a 5 mg/ml MBE1 solution, (10% DMSO, 10% Kolliphor EL, 80% PBS). This was administered via IP injection at ascending doses from 12.5 to 200 mg/kg body mass in a set of 3 mice at 24h intervals. Body condition score, food uptake, fecal/urine production, behavior and body weight were measured as toxicity readouts. Five mice were then treated every 3 days with 25 mg/kg MBE1 for 18 days.

Compound	acute or chronic toxicity
CCc1cnccc1C(=O)Nc1cc2c(cc1F)NC(=O)CC2 [Compound 1, 3-ethyl-N-(7-fluoro-2-oxo-3,4-dihydro-1H-quinolin-6-yl)pyridine-4-carboxamide]	Neither experiment showed any indication of either acute or chronic toxicity

system: not listed separately; experiment: Fast and refeed insulin secretion in db/db mice; assay type: in vivo, mouse; conditions: 40 mg per kg oral gavage once per day, 14 days
Description: C57/Bl6 mice homozygous for the spontaneous mutation (Lepr^db, referred to as db/db) that develop severe obesity and Type 2 Diabetes within 12 weeks were raised through standard husbandry practice and we separated into two groups followed by acclimatization for 9 days in single housing.
Daily food intake and body mass were monitored each day and baseline levels of plasma insulin and glucose were monitored to confirm identical group characteristics.
Compound MBE1 was dissolved to 200 mg/mL in DMSO followed by suspension into a 0.5% methycellulose, 0.5% Tween-80 solution. Mice were treated via oral gavage once per day to achieve 40 mg per kg body mass MBE1 or were treated with vehicle control. Mouse body mass and food consumption were monitored daily over 14 days.
At Day 14, food was removed from mouse cages for 16 hours, and then food was reintroduced. Plasma insulin levels were assayed by ELISA at baseline and at 1 hour, 2 hour and 4 hours following provision of chow and ad libitum feeding.

Compound	plasma insulin after fast and refeed challenge (ELISA)
CCc1cnccc1C(=O)Nc1cc2c(cc1F)NC(=O)CC2 [Compound 1, 3-ethyl-N-(7-fluoro-2-oxo-3,4-dihydro-1H-quinolin-6-yl)pyridine-4-carboxamide]	effectively improve insulin secretion

system: ALDH isoforms 1a1, 1a2, 1a3 and 3a1; experiment: not given; assay type: cell-based, human; conditions: not given
Description: The coding sequences of Aldh1a1, Aldh1a2, Aldh1a3 and Aldh3a1 were cloned from cDNA made from pooled human reference RNA samples. Cloned sequences flanked by Age1 and Xho1 restriction sites were inserted into the pLex lentiviral plasmid. Clones were sequenced and compared against NCBI expressed sequence tags ([…]) for accuracy. […]. Viruses were collected and filtered at 0.45 um, then cells were transduced using polybrene (8 μg/mL) for 12 hours, followed by culture with 1 μg/mL puromycin for the duration of experiments. All viral transduction and selection was performed on a cell population-wide basis.
as §1
ALDH isoforms 1a1, 1a2, 1a3 and 3a1 were expressed in MCF7 or SUM159 cells, which were subsequently used in an ALDEFLUOR™ assay.

Compound	ALDH isoform specificity, ALDEFLUOR-positive cells
2-ethyl-N-(7-fluoro-2-oxo-3,4-dihydro-1H-quinolin-6-yl)benzamide [Compound 4]	specifically inhibits ALDH1a3 at concentrations below 10 μM

— patent publication US20230128402A1 (The Trustees of Princeton University, priority 2020, published 2023)
